Columns and labels:
[1] = Rat Oral Bioavailability Assay; format: in vivo; conditions: plasma, 1 mg/kg, male Sprague Dawley rats, oral suspension vs intravenous, read-out: Fraction bioavailable relative to the intravenous dose (% F)
Experimental: Male Sprague Dawley rats (body weight range 250-320 g) with indwelling femoral arterial cannulae are obtained from Charles River, Wilmington, Mass. 01887, USA. Test compound is administered intravenously in solution (2 mL/kg) in: 10% N-methyl pyrollidone/18% Captisol® in 22.5 mM phosphate buffer, pH 3. The final drug concentration is 0.25 mg/mL (free base equivalents). Blood samples are obtained using the indwelling cannula over 24 h. The animals are then administered an oral dose of test compound in suspension (5 mL/kg) in 1% w/v hydroxyethylcellulose/0.25% v/v polysorbate 80/0.05% v/v antifoam in purified water. The final drug concentration is 0.2 mg/mL (free base equivalents). […]
An internal standard compound (for normalisation) in acetonitrile/methanol (1:1, v/v) is added to samples of plasma to precipitate protein and the samples are centrifuged prior to analysis. The supernatants are analysed by injection and rapid gradient elution on a Javelin Betasil C18 column (20×2.1 mm cartridge, Mobile phase A: Water/1 M ammonium bicarbonate, 2000:10 v/v, Mobile Phase B: MeOH/1 M ammonium bicarbonate, 2000:10 v/v). The eluted analytes are detected by LC-MS-MS analysis using a Sciex API 4000 triple quadrupole mass spectrometer. Concentrations of compounds in plasma are determined from standards prepared under identical conditions. […]

CDK4 = biological target: T1, CDK4 (Homo sapiens, UniProt P11802); assay: CDK4 Inhibition Assay; format: biochemical; conditions: CDK4 kinase, 33P-ATP, CTRF substrate
T1 construct: purchased Proqinase 0142-0373-1
T1 sequence (P11802 whole entry): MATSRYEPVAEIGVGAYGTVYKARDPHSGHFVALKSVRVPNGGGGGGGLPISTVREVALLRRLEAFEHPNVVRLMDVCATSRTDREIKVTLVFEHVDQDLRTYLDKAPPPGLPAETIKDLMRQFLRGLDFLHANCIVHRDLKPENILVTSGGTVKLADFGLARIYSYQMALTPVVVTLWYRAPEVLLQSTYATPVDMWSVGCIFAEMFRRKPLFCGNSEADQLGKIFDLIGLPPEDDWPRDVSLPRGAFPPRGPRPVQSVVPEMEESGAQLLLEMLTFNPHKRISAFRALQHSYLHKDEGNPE
T1 sequence (P30281 whole entry partner): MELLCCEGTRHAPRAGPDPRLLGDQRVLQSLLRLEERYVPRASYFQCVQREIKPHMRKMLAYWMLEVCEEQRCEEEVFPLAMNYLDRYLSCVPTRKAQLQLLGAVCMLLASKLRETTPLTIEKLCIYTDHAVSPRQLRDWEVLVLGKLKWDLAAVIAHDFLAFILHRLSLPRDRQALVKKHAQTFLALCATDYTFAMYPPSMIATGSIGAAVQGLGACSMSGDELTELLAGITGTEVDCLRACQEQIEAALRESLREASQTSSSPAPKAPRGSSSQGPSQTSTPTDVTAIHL
Experimental: All ligands, radiolabels, solvents, and reagents employed in the following assays are readily available from commercial sources, or can be readily synthesized by one skilled in the art.
10 μL of test compound in 20% DMSO, 20 μL of adenosine 5′-triphosphate (ATP) and C-Terminal Retinoblastoma Fragment (CTRF) (Upstate cat # 12-439) solution, and 10 μL of enzyme solution are mixed in a 96 well plate. The ATP and CRTF solution is prepared from a mixture of 40 μM ATP, 0.16 μCi [^33P] ATP and 1 μM CTRF diluted in kinase buffer of 68 mM 4-(2-hydroxyethyl)-1-piperazineethanesulfonic acid (HEPES) pH 7.4, 6.72 mM MgCl2, 6.72 mM dithiothreitol (DTT), and 0.013% TRITON™ X-100. The enzyme solution is prepared from 8 ng CDK4 enzyme (Proqinase cat # 0142-0373-1) diluted in the kinase buffer described above. Test compounds are serially diluted 1:3 in 20% DMSO to create a 10 point curve at a starting concentration of 20 μM. 20% DMSO buffer alone without added test compound is employed as a control, 500 mM ethylene diamine tetraacetic acid (EDTA) is used to determine the level of background ^33P in the absence of enzyme activity. Reagents are mixed and incubated for 90 min at 20° C. […] The wells are washed four times with 0.5% H3PO4 and the radioactivity incorporated is determined with a microplate scintillation counter (Microbeta Trilux, Wallac). […]

Pim-1 = Pim-1 (Homo sapiens, UniProt P11309); assay: Assay for Inhibition of PIM1 Kinase; format: biochemical
Chain of Pim-1 (P11309 whole entry): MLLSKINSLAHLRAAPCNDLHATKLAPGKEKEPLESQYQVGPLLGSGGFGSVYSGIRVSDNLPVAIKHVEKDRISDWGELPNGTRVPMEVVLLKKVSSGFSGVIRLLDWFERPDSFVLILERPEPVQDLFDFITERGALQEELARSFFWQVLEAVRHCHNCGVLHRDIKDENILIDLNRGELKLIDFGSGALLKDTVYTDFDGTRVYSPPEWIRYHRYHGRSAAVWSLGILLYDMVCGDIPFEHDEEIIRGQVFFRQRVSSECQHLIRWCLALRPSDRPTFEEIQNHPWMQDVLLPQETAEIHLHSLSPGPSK
Experimental: Pim-1 (human, 0.46 nM final concentration) is incubated with 8 mM MOPS pH 7.0, 0.2 mM EDTA, 100 μM of an appropriate substrate peptide (see Pim-1 kinase inhibition assay protocol as described in Chen, L. S. et al. (2009) Blood, DOI: 10.1182/blood-2009-03-212852), 10 mM MgAcetate and [γ-^33P-ATP] (specific activity approx. 500 cpm/pmol, concentration as required). The reaction is initiated by the addition of the MgATP mix and then incubated for 40 minutes at room temperature. The reaction is stopped by the addition of 3% phosphoric acid solution. 10 μL of the reaction is then spotted onto a P30 filtermat and washed three times for 5 minutes in 75 mM phosphoric acid and once in methanol prior to drying and scintillation counting. For compound inhibition testing, compounds provided as 10 mM stocks in 100% DMSO are diluted 1:10 in 100% DMSO to give a 50× stock of the top concentration of the curve. The 50× stock is then serially diluted 1:3 in 100% DMSO to create a 10 point concentration-response curve and diluted 1:50 (20 μM to 0.001 μM final in 2% final DMSO concentration) in the reaction mixture to determine compound activity. […] The percent inhibition determined from the controls on each plate and ten-point compound concentration data were then fit to a four-parameter logistic equation using ACTIVITYBASE 4.0. […]

[2] = test system: phosphorylation of Retinoblastoma Protein (pRb); assay: Inhibition of Phosphorylation of Retinoblastoma Protein (pRb) in COLO 205 cells; format: cell-based; conditions: Homo sapiens, 24 h exposure, read-out: IC50 (% phosphoRB positive)
Experimental: COLO 205 Cells from the American Type Culture Collection (ATCC) are plated at 2000 cells/well in 96 well […] BIOCOAT™ plates, and are incubated in RPMI 1640 medium (e.g., GIBCO, catalog #52400-025) with 10% Fetal Bovine Serum (FBS e.g. Gibco cat #11000-144) and 1% sodium pyruvate (Gibco catalog #11360-070) in 37° C., 5% CO2 for 24 h. Cells are treated by adding test compound to the medium, dosing at 10 points of 1:3 dilutions across the range of 20 μM to 0.001 μM, and with final DMSO concentration at 0.25%. After 24 h exposure to the compounds, cells are fixed with the PREFER™ fixative [Anatech LTD., Cat # 414] for 30 min at RT, then are permeabilized with 0.1% TRITON® X100 in phosphate buffered saline (PBS) solution for 15 min at RT. […] Fluorescence plates are scanned with ACUMEN EXPLORER™ [Laser-scanning fluorescence microplate cytometer (comprising of 488 nm argon ion laser excitation and multiple photomultiplier tube detection), manufactured by TTP LABTECH LTD] to measure phosphorylation of Rb protein and DNA content. […] Assay outputs are percentage of each identified subpopulations, % phosphoRB positive, % 2 N and % 4 N. The IC50 and EC50 values are determined by curve fitting to a four parameter logistic for each output using ACTIVITY BASE™. […]

SMILES | bioavailability [1] [%] | IC50 (CDK4) [nM] | IC50 (Pim-1) [nM] | IC50 [2] [nM]
CS(=O)(=O)O.Cc1nc2ccc(-c3nc(Nc4ccc(C5CCN(C(C)C)CC5)cn4)ncc3F)cc2n1C1CCCC1 [Example 22, [4-(3-Cyclopentyl-2-methyl-3H-benzoimidazol-5-yl)-5-fluoro-pyrimidin-2-yl]-(1′-isopropyl-1′,2′,3′,4′,5′,6′-hexahydro-[3,4′]bipyridinyl-6-yl)-amine methanesulfonate] | 48.5 |  |  | 
CCN1CCC(Cc2ccc(Nc3ncc(F)c(-c4cc(F)c5nc(C)n(C(C)C)c5c4)n3)nc2C)CC1 [Example 25, [5-(1-Ethyl-piperidin-4-ylmethyl)-6-methyl-pyridin-2-yl]-[5-fluoro-4-(7-fluoro-3-isopropyl-2-methyl-3H-benzoimidazol-5-yl)-pyrimidin-2-yl]-amine methanesulfonate] |  | 3 | 3 | ~100

Source: patent US7855211B2, “Protein kinase inhibitors” (Eli Lilly and Company, priority 2008, dated 2010)
